From patent US11566007B2, “Ras inhibitors” (Revolution Medicines, Inc., priority 2019, dated 2023)
Like-named read-outs stand apart in the source and are kept apart here.

Legend:
[1] = biological target: KRAS G12V (Homo sapiens (Human), UniProt P01116+P62937, G12V); assay: Ras-Raf (BRAF RBD) disruption / FRET / MOA assay, KRAS G12V; assay type: biochemical
Outline: (§1)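 TR-FRET read-out: a drop in ratio relative to DMSO wells marks disruption of the Ras:RAF complex, reported as IC50. Compounds (3-fold series, 10 points, top 30 μM final) incubated 3 h at 25° C before Eu-anti-His 10 nM and APC-anti-GST 50 nM, 1.5 h more.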

[2] = biological target: NRAS G12C (Homo sapiens (Human), UniProt P01111+P62937, G12C); assay: Ras-Raf (BRAF RBD) disruption / FRET / MOA assay, NRAS G12C; assay type: biochemical
Sequence of NRAS G12C (P01111 whole entry G12C): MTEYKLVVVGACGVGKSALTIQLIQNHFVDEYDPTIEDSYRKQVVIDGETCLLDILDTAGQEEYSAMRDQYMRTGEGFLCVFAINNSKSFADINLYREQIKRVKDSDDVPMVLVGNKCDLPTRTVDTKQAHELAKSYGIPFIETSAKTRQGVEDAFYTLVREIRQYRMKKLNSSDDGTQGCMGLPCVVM
Sequence of NRAS G12C (P62937 whole entry): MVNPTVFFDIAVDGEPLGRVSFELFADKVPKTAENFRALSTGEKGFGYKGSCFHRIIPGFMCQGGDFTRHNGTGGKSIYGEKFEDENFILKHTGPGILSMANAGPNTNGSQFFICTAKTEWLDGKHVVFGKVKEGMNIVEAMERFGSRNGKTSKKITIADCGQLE
Outline: as §1

[3] = biological target: K-Ras G12C (Homo sapiens (Human), UniProt P01116+P62937, G12C); assay: Ras-Raf (BRAF RBD) disruption / FRET / MOA assay, KRAS G12C; assay type: biochemical; conditions: KRAS G12C, Ras-Raf disruption/FRET/MOA assay
Sequence of K-Ras G12C (P01116-2 other isoform, or with tags, fused parts or gaps G12C): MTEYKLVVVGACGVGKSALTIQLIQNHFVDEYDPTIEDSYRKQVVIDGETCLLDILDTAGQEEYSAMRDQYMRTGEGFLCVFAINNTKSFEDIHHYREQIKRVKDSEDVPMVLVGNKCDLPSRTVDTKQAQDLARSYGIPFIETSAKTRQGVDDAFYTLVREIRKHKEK
Sequence of K-Ras G12C (P62937 whole entry): as the sequence (P62937 whole entry) above
Outline: as §1

[4] = biological target: KRAS G12D (Homo sapiens (Human), UniProt P01116+P62937, G12D); assay: Ras-Raf (BRAF RBD) disruption / FRET / MOA assay, KRAS G12D; assay type: biochemical; conditions: class symbols
Sequence of KRAS G12D (P01116-2 other isoform, or with tags, fused parts or gaps G12D): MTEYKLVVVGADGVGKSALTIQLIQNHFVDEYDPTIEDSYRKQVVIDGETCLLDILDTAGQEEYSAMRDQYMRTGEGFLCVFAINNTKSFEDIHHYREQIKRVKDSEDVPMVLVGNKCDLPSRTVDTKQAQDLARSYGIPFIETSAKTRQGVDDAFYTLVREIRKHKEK
Sequence of KRAS G12D (P62937 whole entry): as the sequence (P62937 whole entry) above
Outline: as §1

[5] = biological target: KRAS G13D (Homo sapiens (Human), UniProt P01116+P62937, G13D); assay: Ras-Raf (BRAF RBD) disruption / FRET / MOA assay, KRAS G13D; assay type: biochemical
Sequence of KRAS G13D (P01116-2 other isoform, or with tags, fused parts or gaps G13D): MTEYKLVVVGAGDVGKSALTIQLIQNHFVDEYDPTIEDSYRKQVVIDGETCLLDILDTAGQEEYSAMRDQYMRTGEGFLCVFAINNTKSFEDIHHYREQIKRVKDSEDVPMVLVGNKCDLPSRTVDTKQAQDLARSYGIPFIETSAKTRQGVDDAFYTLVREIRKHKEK
Sequence of KRAS G13D (P62937 whole entry): as the sequence (P62937 whole entry) above
Outline: as §1

[6] = biological target: KRAS WT (Homo sapiens (Human), UniProt P01116+P62937); assay: Ras-Raf (BRAF RBD) disruption / FRET / MOA assay, KRAS WT; assay type: biochemical
Sequence of KRAS WT (P01116-2 other isoform, or with tags, fused parts or gaps): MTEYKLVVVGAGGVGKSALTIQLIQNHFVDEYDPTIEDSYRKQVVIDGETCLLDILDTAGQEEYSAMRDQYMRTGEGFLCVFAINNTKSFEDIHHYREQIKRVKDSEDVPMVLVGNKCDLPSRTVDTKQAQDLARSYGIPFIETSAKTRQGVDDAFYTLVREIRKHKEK
Sequence of KRAS WT (P62937 whole entry): as the sequence (P62937 whole entry) above
Outline: as §1

[7] = tested on: NCI-H358 (K-Ras G12C); assay: CellTiter-Glo cell viability assay, NCI-H358; assay type: cell-based, human; conditions: Homo sapiens, NCI-H358, 120 h, NCI-H358, 5-day treatment; class symbols; read-out: Additional H358 Cell Viability assay data (K-Ras G12C, IC50)
Outline: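 Cells seeded, compound added directly, 5-day exposure. Plates to RT ~30 min, CellTiter-Glo luminescence read. Normalized to DMSO avg (x100); 4-parameter logistic fit.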

[8] = biological target: KRAS G12S (Homo sapiens (Human), UniProt P01116+P62937, G12S); assay: Ras-Raf (BRAF RBD) disruption / FRET / MOA assay, KRAS G12S; assay type: biochemical; conditions: class symbols
Sequence of KRAS G12S (P01116-2 other isoform, or with tags, fused parts or gaps G12S): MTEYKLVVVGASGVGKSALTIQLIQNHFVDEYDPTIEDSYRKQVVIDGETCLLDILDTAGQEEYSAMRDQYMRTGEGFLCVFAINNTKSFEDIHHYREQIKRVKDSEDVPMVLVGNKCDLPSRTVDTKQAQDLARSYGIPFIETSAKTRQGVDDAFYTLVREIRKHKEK
Sequence of KRAS G12S (P62937 whole entry): as the sequence (P62937 whole entry) above
Outline: as §1

[9] = biological target: K-Ras G13C (Homo sapiens (Human), UniProt P01116+P62937, G13C); assay: Ras-Raf (BRAF RBD) disruption / FRET / MOA assay, KRAS G13C; assay type: biochemical; conditions: KRAS G13C, Ras-Raf disruption/FRET/MOA assay
Sequence of K-Ras G13C (P01116-2 other isoform, or with tags, fused parts or gaps G13C): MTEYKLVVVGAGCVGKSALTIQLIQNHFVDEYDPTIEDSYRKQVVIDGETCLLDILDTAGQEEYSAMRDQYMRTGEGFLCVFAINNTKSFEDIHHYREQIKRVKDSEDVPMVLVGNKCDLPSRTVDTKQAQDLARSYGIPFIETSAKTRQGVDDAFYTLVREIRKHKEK
Sequence of K-Ras G13C (P62937 whole entry): as the sequence (P62937 whole entry) above
Outline: as §1

[10] = tested on: NCI-H358 cells (K-Ras G12C); assay: Potency assay: pERK in NCI-H358 cells; assay type: cell-based, human; conditions: Homo sapiens, NCI-H358; H358 KRAS G12C; read-out: pERK EC50
Outline: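 pERK decrease read by AlphaLISA SureFire p-ERK1/2 or In-Cell Western after 4 h compound exposure at 37 °C, 5% CO2.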

[11] = read-out: IC50* KRAS G12V FRET data
[12] = read-out: IC50* NRAS G12C FRET data
[13] = read-out: IC50* KRAS G12C FRET data
[14] = Ras-Raf disruption/FRET/MOA assay, read-out: KRAS G12D FRET data IC50
[15] = read-out: IC50* KRAS G13D FRET data
[16] = read-out: IC50* KRAS WT FRET data
[17] = Ras-Raf disruption/FRET/MOA assay, read-out: KRAS G12S FRET data IC50
[18] = read-out: IC50* KRAS G13C FRET data

Sequence of KRAS G12V (P01116-2 other isoform, or with tags, fused parts or gaps G12V): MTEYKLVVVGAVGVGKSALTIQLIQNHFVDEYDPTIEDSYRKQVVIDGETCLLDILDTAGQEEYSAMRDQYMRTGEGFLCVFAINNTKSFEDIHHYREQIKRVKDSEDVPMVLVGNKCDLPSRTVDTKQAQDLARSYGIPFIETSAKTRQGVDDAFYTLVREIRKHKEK
Sequence of KRAS G12V (P62937 whole entry): as the sequence (P62937 whole entry) above

SMILES	IC50 [1, 11] [nM]	IC50 [2, 12] [nM]	IC50 [3, 13] [nM]	IC50 [4, 14] [nM]	IC50 [5, 15] [nM]	IC50 [6, 16] [nM]	IC50 [7] [nM]	IC50 [8, 17] [nM]	IC50 [9, 18] [nM]	EC50 [10] [nM]	IC50 ([1]; IC50* KRAS G12V FRET data) [nM]	IC50 ([2]; IC50* NRAS G12C FRET data) [nM]	IC50 ([3]; IC50* KRAS G12C FRET data) [nM]	IC50 ([4]; KRAS G12D FRET data IC50, Ras-Raf disruption/FRET/MOA assay) [nM]	IC50 ([5]; IC50* KRAS G13D FRET data) [nM]	IC50 ([6]; IC50* KRAS WT FRET data) [nM]	IC50 ([8]; KRAS G12S FRET data IC50, Ras-Raf disruption/FRET/MOA assay) [nM]	IC50 ([9]; IC50* KRAS G13C FRET data) [nM]
CCn1c(-c2cccnc2[C@H](C)OC)c2c3cc(ccc31)-c1cc(O)cc(c1)C[C@H](NC(=O)[C@H](C(C)C)N(C)C(=O)N1CCCN(C(=O)/C=C/CN(C)C)CC1)C(=O)N1CCC[C@H](N1)C(=O)OCC(C)(C)C2 (atropisomer, axis not shown) [Example A264]	10 to 100	10 to 100	10 to 100	10 to 100	10 to 100	10 to 100	10 to 100	10 to 100	10 to 100	< 5000	–	–	–	–	–	–	–	–
C=CC(=O)N1CCCN(C(=O)N(C)[C@H](C(=O)N[C@H]2Cc3cc(O)cc(c3)-c3ccc4c(c3)c(c(-c3cccnc3[C@H](C)OC)n4CC)CC(C)(C)COC(=O)[C@@H]3CCCN(N3)C2=O)C(C)C)CC1 (atropisomer, axis not shown) [Example A265]	10 to 100	10 to 100	10 to 100	10 to 100	10 to 100	10 to 100	10 to 100	10 to 100	10 to 100	< 5000	–	–	–	–	–	–	–	–
CCn1c(-c2cccnc2[C@H](C)OC)c2c3cc(ccc31)-c1cc(O)cc(c1)C[C@H](NC(=O)[C@H](C(C)C)N1CCC3(CCN(C(=O)/C=C/CN(C)C)CC3)C1=O)C(=O)N1CCC[C@H](N1)C(=O)OCC(C)(C)C2 (atropisomer, axis not shown) [Example A267]	100 to 1000	10 to 100	10 to 100	1000 to 10000	10 to 100	100 to 1000	10 to 100	100 to 1000	10 to 100	< 5000	–	–	–	–	–	–	–	–
CCn1c(-c2cccnc2[C@H](C)OC)c2c3cc(ccc31)-c1cc(O)cc(c1)C[C@H](NC(=O)[C@H](C(C)C)N1CC[C@]3(CCN(C(=O)/C=C/CN(C)C)C3)C1=O)C(=O)N1CCC[C@H](N1)C(=O)OCC(C)(C)C2 (atropisomer, axis not shown) [Example A268]	10 to 100	< 10	< 10	10 to 100	10 to 100	10 to 100	10 to 100	10 to 100	10 to 100	< 5000	–	–	–	–	–	–	–	–
CCn1c(-c2cccnc2[C@H](C)OC)c2c3cc(ccc31)-c1cc(O)cc(c1)C[C@H](NC(=O)[C@H](C(C)C)N1CC[C@@]3(CCN(C(=O)/C=C/CN(C)C)C3)C1=O)C(=O)N1CCC[C@H](N1)C(=O)OCC(C)(C)C2 (atropisomer, axis not shown) [Example A269]	100 to 1000	10 to 100	10 to 100	100 to 1000	100 to 1000	100 to 1000	10 to 100	100 to 1000	100 to 1000	< 5000	–	–	–	–	–	–	–	–
CCn1c(-c2cccnc2[C@H](C)OC)c2c3cc(ccc31)-c1cc(O)cc(c1)C[C@H](NC(=O)[C@H](C(C)C)N1CCC3(CN(C(=O)/C=C/CN(C)C)C3)C1=O)C(=O)N1CCC[C@H](N1)C(=O)OCC(C)(C)C2 (atropisomer, axis not shown) [Example A270]	100 to 1000	< 10	< 10	100 to 1000	10 to 100	10 to 100	10 to 100	10 to 100	< 10	< 5000	–	–	–	–	–	–	–	–
C=CC(=O)N1CCC2(CC1)CCN([C@H](C(=O)N[C@H]1Cc3cc(O)cc(c3)-c3ccc4c(c3)c(c(-c3cccnc3[C@H](C)OC)n4CC)CC(C)(C)COC(=O)[C@@H]3CCCN(N3)C1=O)C(C)C)C2=O (atropisomer, axis not shown) [Example A296]	100 to 1000	10 to 100	10 to 100	1000 to 10000	10 to 100	10 to 100	< 10	100 to 1000	10 to 100	< 5000	–	–	–	–	–	–	–	–

The next lines start with the values.

IC50 [1, 11] [nM]	IC50 [2, 12] [nM]	IC50 [3, 13] [nM]	IC50 [4, 14] [nM]	IC50 [5, 15] [nM]	IC50 [6, 16] [nM]	IC50 [7] [nM]	IC50 [8, 17] [nM]	IC50 [9, 18] [nM]	EC50 [10] [nM]	IC50 ([1]; IC50* KRAS G12V FRET data) [nM]	IC50 ([2]; IC50* NRAS G12C FRET data) [nM]	IC50 ([3]; IC50* KRAS G12C FRET data) [nM]	IC50 ([4]; KRAS G12D FRET data IC50, Ras-Raf disruption/FRET/MOA assay) [nM]	IC50 ([5]; IC50* KRAS G13D FRET data) [nM]	IC50 ([6]; IC50* KRAS WT FRET data) [nM]	IC50 ([8]; KRAS G12S FRET data IC50, Ras-Raf disruption/FRET/MOA assay) [nM]	IC50 ([9]; IC50* KRAS G13C FRET data) [nM]	SMILES
100 to 1000	100 to 1000	10 to 100	1000 to 10000	100 to 1000	10 to 100	10 to 100	100 to 1000	10 to 100	< 5000	–	–	–	–	–	–	–	–	C/C=C/S(=O)(=O)N1CC[C@H](C(=O)N(C)[C@H](C(=O)N[C@H]2Cc3cc(O)cc(c3)-c3ccc4c(c3)c(c(-c3cccnc3[C@H](C)OC)n4CC)CC(C)(C)COC(=O)[C@@H]3CCCN(N3)C2=O)C(C)C)C1 (atropisomer, axis not shown) [Example A280]
1000 to 10000	1000 to 10000	1000 to 10000	> 10000	> 10000	> 10000	100 to 1000	> 10000	1000 to 10000	< 5000	–	–	–	–	–	–	–	–	CC#CC(=O)N1CC[C@H](C(=O)N(C)[C@H](C(=O)N[C@H]2Cc3nc(ns3)-c3ccc4c(c3)c(c(-c3cccnc3[C@H](C)OC)n4CC)CC(C)(C)COC(=O)[C@@H]3CCCN(N3)C2=O)C(C)C)C1 (atropisomer, axis not shown) [Example A289]
1000 to 10000	10 to 100	< 10	> 10000	> 10000	1000 to 10000	< 10	1000 to 10000	1000 to 10000	< 5000	–	–	–	–	–	–	–	–	CCn1c(-c2cccnc2[C@H](C)OC)c2c3cc(ccc31)-c1csc(n1)C[C@H](NC(=O)[C@H](C(C)C)N(C)C(=O)[C@H]1CCN(C(=O)C#CC(C)(C)N(C)C)C1)C(=O)N1CCC[C@H](N1)C(=O)OCC(C)(C)C2 (atropisomer, axis not shown) [Example A291]
10 to 100	< 10	< 10	100 to 1000	100 to 1000	100 to 1000	< 10	10 to 100	< 10	< 5000	–	–	–	–	–	–	–	–	CCn1c(-c2cccnc2[C@H](C)OC)c2c3cc(ccc31)-c1cc(O)cc(c1)C[C@H](NC(=O)[C@H](C(C)C)N(C)C(=O)[C@H]1CCN(C(=O)C#CC(C)(C)N(C)C)C1)C(=O)N1CCC[C@H](N1)C(=O)OCC(C)(C)C2 (atropisomer, axis not shown) [Example A292]
–	–	–	–	–	–	10 to 100	–	–	< 5000	10 to 100	10 to 100	10 to 100	1000 to 10000	100 to 1000	100 to 1000	100 to 1000	10 to 100	CCn1c(-c2cccnc2[C@H](C)OC)c2c3cc(ccc31)-c1cc(O)cc(c1)C[C@H](NC(=O)[C@H](C(C)C)N(C)C(=O)[C@H]1CCN(S(=O)(=O)C=C(C)C)C1)C(=O)N1CCC[C@H](N1)C(=O)OCC(C)(C)C2 (atropisomer, axis not shown) [Example A305]
100 to 1000	100 to 1000	100 to 1000	1000 to 10000	100 to 1000	100 to 1000	10 to 100	100 to 1000	10 to 100	< 5000	–	–	–	–	–	–	–	–	C/C=C(\C)S(=O)(=O)N1CC[C@H](C(=O)N(C)[C@H](C(=O)N[C@H]2Cc3cc(O)cc(c3)-c3ccc4c(c3)c(c(-c3cccnc3[C@H](C)OC)n4CC)CC(C)(C)COC(=O)[C@@H]3CCCN(N3)C2=O)C(C)C)C1 (atropisomer, axis not shown) [Example A306]
